Experimental data as given in paper PMC7069796 (Breast cancer research and treatment, 2020).

Molecular target: T1, Estrogen Receptor Alpha (ERα) (Homo sapiens, UniProt P03372, Y537S)
T1 sequence (P03372 282-595 Y537S): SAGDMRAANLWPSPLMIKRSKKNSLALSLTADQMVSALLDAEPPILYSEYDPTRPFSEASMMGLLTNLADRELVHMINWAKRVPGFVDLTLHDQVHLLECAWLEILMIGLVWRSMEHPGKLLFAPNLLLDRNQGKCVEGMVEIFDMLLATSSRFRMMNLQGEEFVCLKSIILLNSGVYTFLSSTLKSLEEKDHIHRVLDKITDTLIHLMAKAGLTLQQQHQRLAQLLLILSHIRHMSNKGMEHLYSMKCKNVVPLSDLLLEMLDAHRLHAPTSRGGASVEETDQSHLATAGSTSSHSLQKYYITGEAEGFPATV
Experiment: LanthaScreen TR-FRET competitive binding assay with purified GST-ERα LBD

IC50: 29.5 nM
SMILES: CCC(=C(c1ccc(/C=C/C(=O)O)cc1)c1ccc(B(O)O)cc1)c1ccccc1 [GLL398]
